Test results: ChEMBL document CHEMBL1147189, “QSAR analysis for heterocyclic antifungals” (2007)
≈ marks a conversion by molar mass, not a printed value.

These compounds were tested on Candida albicans (assay: Antifungal activity against Candida albicans by serial dilution method). Conditions: read-out: -Log MIC (converted).
Format: functional

Row | Compound | MIC [µM]
1 | Nc1ccc(-c2nc3ccccc3o2)cc1 | 119 (≈ 25 µg/mL)
2 | c1ccc(CCc2nc3ccccc3[nH]2)cc1 | 83.6 (≈ 18.6 µg/mL)
3 | Nc1ccc2oc(-c3ccc(F)cc3)nc2c1 | 110 (≈ 25 µg/mL)
4 | Cc1ccc2[nH]c(CSc3ccccc3)nc2c1 | 97.9 (≈ 24.9 µg/mL)
5 | Cc1ccc2nc(CSc3ccccc3)oc2c1 | 97.9 (≈ 25 µg/mL)
6 | COC(=O)c1ccc2[nH]c(COc3ccccc3)nc2c1 | 88.5 (≈ 25 µg/mL)
7 | Clc1ccc2[nH]c(CSc3ccccc3)nc2c1 | 91 (≈ 25 µg/mL)
8 | c1ccc(NCc2nc3ccccc3[nH]2)cc1 | 112 (≈ 25 µg/mL)
9 | Cc1ccc2[nH]c(CNc3ccccc3)nc2c1 | 105 (≈ 25 µg/mL)
10 | CC(=O)Nc1ccc(-c2nc3cc(C)ccc3o2)cc1 | 94 (≈ 25 µg/mL)
11 | COC(=O)c1ccc2[nH]c(CSc3ccccc3)nc2c1 | 83.9 (≈ 25 µg/mL)
12 | Nc1ccc(-c2nc3ncccc3o2)cc1 | 59.3 (≈ 12.5 µg/mL)
13 | CC(C)(C)c1ccc(-c2nc3ccccc3o2)cc1 | 99.8 (≈ 25.1 µg/mL)
14 | CC(=O)Nc1ccc(-c2nc3cc(Cl)ccc3o2)cc1 | 87.3 (≈ 25 µg/mL)
15 | CCc1ccc(-c2nc3cc(Cl)ccc3o2)cc1 | 97.1 (≈ 25 µg/mL)
16 | Cc1ccc2nc(COc3ccccc3)oc2c1 | 104 (≈ 25 µg/mL)
17 | O=[N+]([O-])c1ccc2oc(COc3ccc(Cl)cc3)nc2c1 | 82 (≈ 25 µg/mL)
18 | Cc1ccc2oc(-c3ccc(N(C)C)cc3)nc2c1 | 99.1 (≈ 25 µg/mL)
19 | Cc1ccc(-c2nc3ncccc3o2)cc1 | 59.6 (≈ 12.5 µg/mL)

Row | Compound | MIC [µM]
20 | Clc1ccc(-c2nc3cc(Cl)ccc3o2)cc1 | 94.6 (≈ 25 µg/mL)
21 | O=[N+]([O-])c1ccc(-c2nc3cc(Cl)ccc3o2)cc1 | 91.2 (≈ 25 µg/mL)
22 | CNc1ccc(-c2nc3cc(Cl)ccc3o2)cc1 | 94.4 (≈ 24.4 µg/mL)
23 | O=[N+]([O-])c1cc2oc(COc3ccc(Cl)cc3)nc2cc1Cl | 148 (≈ 50 µg/mL)
24 | Clc1ccc(OCc2nc3cc(Cl)ccc3o2)cc1 | 84.9 (≈ 25 µg/mL)
25 | Clc1ccc(OCc2nc3ccccc3s2)cc1 | 181 (≈ 49.9 µg/mL)
26 | c1ccc(Cc2nc3ccccc3o2)cc1 | 59.8 (≈ 12.5 µg/mL)
27 | Cc1ccc2nc(COc3ccc(Cl)cc3)oc2c1 | 183 (≈ 50 µg/mL)
28 | CCc1ccc(-c2nc3cc(N)ccc3o2)cc1 | 105 (≈ 25 µg/mL)
29 | CN(C)c1ccc(-c2nc3cc(N)ccc3o2)cc1 | 98.9 (≈ 25 µg/mL)
30 | Cc1ccc(-c2nc3cc(C)ccc3o2)cc1 | 112 (≈ 25.1 µg/mL)
31 | CCc1ccc(-c2nc3cc(C)ccc3o2)cc1 | 105 (≈ 25 µg/mL)
32 | COc1ccc(-c2nc3cc(C)ccc3o2)cc1 | 105 (≈ 25.1 µg/mL)
33 | Cc1ccc2oc(COc3ccccc3)nc2c1 | 105 (≈ 25.1 µg/mL)
34 | Clc1ccc(OCc2nc3ccccc3o2)cc1 | 96.4 (≈ 25 µg/mL)
35 | O=[N+]([O-])c1ccc2nc(COc3ccc(Cl)cc3)oc2c1 | 164 (≈ 50 µg/mL)
36 | Cc1ccc2oc(-c3ccc(F)cc3)nc2c1 | 110 (≈ 25 µg/mL)
37 | Clc1ccc(OCc2nc3ccccc3[nH]2)cc1 | 96.6 (≈ 25 µg/mL)
38 | Cc1ccc2oc(COc3ccc(Cl)cc3)nc2c1 | 183 (≈ 50 µg/mL)

Row | Compound | MIC [µM]
39 | Cc1ccc2[nH]c(COc3ccccc3)nc2c1 | 105 (≈ 25 µg/mL)
40 | COC(=O)c1ccc2oc(COc3ccccc3)nc2c1 | 88.3 (≈ 25 µg/mL)
41 | c1ccc(OCc2nc3ccccc3o2)cc1 | 111 (≈ 25 µg/mL)
42 | O=[N+]([O-])c1ccc2oc(COc3ccccc3)nc2c1 | 92.5 (≈ 25 µg/mL)
43 | O=[N+]([O-])c1ccc2nc(COc3ccccc3)oc2c1 | 185 (≈ 50.1 µg/mL)
44 | CNc1ccc(-c2nc3cc(C)ccc3o2)cc1 | 105 (≈ 25 µg/mL)
45 | COC(=O)c1ccc2[nH]c(COc3ccc(Cl)cc3)nc2c1 | 79.1 (≈ 25 µg/mL)
46 | Clc1ccc2[nH]c(CCc3ccccc3)nc2c1 | 97.3 (≈ 25 µg/mL)
47 | CNc1ccc(-c2nc3ccccc3o2)cc1 | 112 (≈ 25 µg/mL)
48 | Nc1ccc2oc(-c3ccc(Br)cc3)nc2c1 | 77.6 (≈ 22.4 µg/mL)
49 | Cc1ccc2oc(CSc3ccccc3)nc2c1 | 97.9 (≈ 25 µg/mL)
50 | Cc1ccc2[nH]c(COc3ccc(Cl)cc3)nc2c1 | 91.8 (≈ 25 µg/mL)
51 | O=[N+]([O-])c1cc2oc(COc3ccccc3)nc2cc1Cl | 164 (≈ 50 µg/mL)
52 | c1ccc(OCc2nc3ccccc3[nH]2)cc1 | 111 (≈ 25 µg/mL)
53 | COC(=O)c1ccc2oc(COc3ccc(Cl)cc3)nc2c1 | 78.7 (≈ 25 µg/mL)
54 | c1ccc(OCc2nc3ccccc3s2)cc1 [2-(PHENOXYMETHYL)BENZOTHIAZOLE] | 207 (≈ 50 µg/mL)
55 | c1ccc(SCc2nc3ccccc3s2)cc1 [2-(PHENYLTHIOMETHYL)BENZO[D]THIAZOLE] | 97.1 (≈ 25 µg/mL)
56 | c1ccc(-c2nc3ccccc3o2)cc1 [2-PHENYLBENZO[D]OXAZOLE] | 128 (≈ 25 µg/mL)

The next compounds have a lower MIC than those just listed; values first:

Row | MIC [µM] | Compound
57 | 43.9 (≈ 12.5 µg/mL) | O=[N+]([O-])c1ccc2[nH]c(CSc3ccccc3)nc2c1
58 | 45.3 (≈ 11.8 µg/mL) | Clc1ccc2oc(COc3ccccc3)nc2c1
59 | 52.1 (≈ 14 µg/mL) | O=[N+]([O-])c1ccc2[nH]c(COc3ccccc3)nc2c1
60 | 51.3 (≈ 12.5 µg/mL) | Clc1ccc(Cc2nc3ccccc3o2)cc1
61 | 20.9 (≈ 6.25 µg/mL) | O=[N+]([O-])c1ccc(Cc2nc3cc([N+](=O)[O-])ccc3o2)cc1
62 | 48.3 (≈ 12.5 µg/mL) | Clc1ccc2[nH]c(COc3ccccc3)nc2c1
63 | 46.7 (≈ 12.5 µg/mL) | O=[N+]([O-])c1ccc2oc(CCc3ccccc3)nc2c1
64 | 39 (≈ 12.5 µg/mL) | O=[N+]([O-])c1cc2oc(CSc3ccccc3)nc2cc1Cl
65 | 41.8 (≈ 12.5 µg/mL) | COC(=O)c1ccc2oc(CSc3ccccc3)nc2c1
66 | 49.2 (≈ 12.5 µg/mL) | Cc1ccc(-c2nc3cc([N+](=O)[O-])ccc3o2)cc1
67 | 42.2 (≈ 12.5 µg/mL) | CC(C)(C)c1ccc(-c2nc3cc([N+](=O)[O-])ccc3o2)cc1
68 | 43.8 (≈ 12.5 µg/mL) | O=[N+]([O-])c1ccc2oc(CSc3ccccc3)nc2c1
69 | 55.3 (≈ 12.5 µg/mL) | COc1ccc(-c2nc3ncccc3o2)cc1
70 | 52.1 (≈ 12.5 µg/mL) | CCOc1ccc(-c2nc3ncccc3o2)cc1
71 | 49.2 (≈ 12.5 µg/mL) | O=[N+]([O-])c1ccc(Cc2nc3ccccc3o2)cc1
72 | 51.3 (≈ 12.5 µg/mL) | Clc1ccc2oc(Cc3ccccc3)nc2c1
73 | 49 (≈ 12.5 µg/mL) | Nc1ccc(-c2nc3cc([N+](=O)[O-])ccc3o2)cc1
74 | 51.9 (≈ 12.5 µg/mL) | O=[N+]([O-])c1ccc(-c2nc3ncccc3o2)cc1
75 | 45.7 (≈ 12.5 µg/mL) | COc1ccc(Cc2nc3cc(Cl)ccc3o2)cc1
76 | 38.9 (≈ 12.6 µg/mL) | Clc1ccc2oc(Cc3ccc(Br)cc3)nc2c1

Row | MIC [µM] | Compound
77 | 21.7 (≈ 6.26 µg/mL) | O=[N+]([O-])c1ccc2oc(Cc3ccc(Cl)cc3)nc2c1
78 | 55 (≈ 12.4 µg/mL) | c1ccc(OCc2nc3ncccc3o2)cc1
79 | 48 (≈ 12.5 µg/mL) | Clc1ccc(OCc2nc3ncccc3o2)cc1
80 | 55.8 (≈ 12.5 µg/mL) | c1ccc(CCc2nc3ncccc3o2)cc1
81 | 52 (≈ 12.5 µg/mL) | c1ccc(SCc2nc3ccccc3[nH]2)cc1
82 | 52.8 (≈ 12.5 µg/mL) | Cc1ccc2[nH]c(CCc3ccccc3)nc2c1
83 | 55.8 (≈ 12.5 µg/mL) | CCc1ccc(-c2nc3ncccc3o2)cc1
84 | 52.2 (≈ 12.5 µg/mL) | O=[N+]([O-])c1ccc2oc(-c3ccccc3)nc2c1
85 | 52.2 (≈ 12.5 µg/mL) | COc1ccc(Cc2nc3ccccc3o2)cc1
86 | 18.8 (≈ 6.28 µg/mL) | O=[N+]([O-])c1ccc2oc(Cc3ccc(Br)cc3)nc2c1
87 | 45.5 (≈ 12.5 µg/mL) | O=[N+]([O-])c1ccc2oc(-c3ccc(Cl)cc3)nc2c1
88 | 39.3 (≈ 12.5 µg/mL) | O=[N+]([O-])c1ccc2oc(-c3ccc(Br)cc3)nc2c1
89 | 43.4 (≈ 12.5 µg/mL) | O=[N+]([O-])c1ccc(Cc2nc3cc(Cl)ccc3o2)cc1
90 | 22 (≈ 6.26 µg/mL) | COc1ccc(Cc2nc3cc([N+](=O)[O-])ccc3o2)cc1
91 | 43.7 (≈ 12.5 µg/mL) | O=[N+]([O-])c1ccc2nc(CSc3ccccc3)oc2c1
92 | 42.7 (≈ 12.5 µg/mL) | Clc1ccc(OCc2nc3cc(Cl)ccc3[nH]2)cc1
93 | 43.7 (≈ 12.6 µg/mL) | Brc1ccc(Cc2nc3ccccc3o2)cc1
94 | 51.8 (≈ 12.5 µg/mL) | c1ccc(SCc2nc3ccccc3o2)cc1
95 | 24.6 (≈ 6.26 µg/mL) | O=[N+]([O-])c1ccc2oc(Cc3ccccc3)nc2c1
